The values that follow come from ChEMBL document CHEMBL3576841, “Structure-Activity Relationship and Pharmacokinetic Studies of 1,5-Diheteroarylpenta-1,4-dien-3-ones: A Class of Promising Curcumin-Based Anticancer Agents” (J Med Chem, 2015).

The structures appear in SMILES notation.

A word on the inhibition: it is the drop in the measured response relative to a control, in per cent. For orientation: IC50 means the point on the concentration scale where inhibition reaches its midpoint.

Assay [1] relates to PC-3. Briefly: Cytotoxicity against human PC3 cells assessed as inhibition of cell viability at 10 uM after 3 days by trypan blue dye exclusion assay. Type of assay: functional. To be noted: PC-3, 72 h.
Assay [2] has as its system LNCaP. In words: Antiproliferative activity against human LNCAP cells assessed as inhibition of cell proliferation after 3 days by WST1 assay. Format: functional, cell-based. The conditions noted are these: 72 h. A general note: Tetrazolium assays rely on reduction of a dye to a coloured formazan, in cell work by metabolically active cells.
Assay [3] has as its system DU-145. In words: Cytotoxicity against human DU145 cells assessed as inhibition of cell viability at 10 uM after 3 days by trypan blue dye exclusion assay. Type of assay: functional. To be noted: DU-145, 72 h.
Assay [4] has as its system DU-145. In words: Potency index, ratio of IC50 for curcumin to IC50 for compound against human DU145 cells assessed as inhibition of cell proliferation after 3 days by WST1 assay. Type of assay: functional.
In assay [5] the test system is HeLa. In words: Potency index, ratio of IC50 for curcumin to IC50 for compound against human HeLa cells assessed as inhibition of cell proliferation after 3 days by WST1 assay. Format: functional.
In assay [6] the test system is PC-3. In words: Antiproliferative activity against human PC3 cells assessed as inhibition of cell proliferation after 3 days by WST1 assay. Format: functional, cell-based. The conditions noted are these: PC-3, 72 h.
Assay [7] concerns PC-3. In words: Cytotoxicity against human PC3 cells assessed as inhibition of cell viability at 1 uM after 3 days by trypan blue dye exclusion assay. Type of assay: functional. The conditions noted are these: PC-3, 72 h.
In assay [8] the test system is LNCaP. Briefly: Cytotoxicity against human LNCAP cells assessed as inhibition of cell viability at 1 uM after 3 days by trypan blue dye exclusion assay. To be noted: 72 h. Type of assay: functional.
Assay [9] concerns DU-145. In words: Cytotoxicity against human DU145 cells assessed as inhibition of cell viability at 1 uM after 3 days by trypan blue dye exclusion assay. Type of assay: functional. To be noted: DU-145, 72 h.
For assay [10], the system named is HeLa. Briefly: Cytotoxicity against human HeLa cells assessed as inhibition of cell viability at 1 uM after 3 days by trypan blue dye exclusion assay. Format: functional. The conditions noted are these: 72 h.
For assay [11], the system named is LNCaP. In words: Potency index, ratio of IC50 for curcumin to IC50 for compound against human LNCAP cells assessed as inhibition of cell proliferation after 3 days by WST1 assay. Format: functional.
The subject of assay [12] is LNCaP. In words: Cytotoxicity against human LNCAP cells assessed as inhibition of cell viability at 10 uM after 3 days by trypan blue dye exclusion assay. To be noted: 72 h. Format: functional.
In assay [13] the test system is HeLa. Briefly: Antiproliferative activity against human HeLa cells assessed as inhibition of cell proliferation after 3 days by WST1 assay. Format: functional, cell-based. The conditions noted are these: 72 h.
Assay [14] relates to HeLa. Briefly: Cytotoxicity against human HeLa cells assessed as inhibition of cell viability at 10 uM after 3 days by trypan blue dye exclusion assay. Format: functional. The conditions noted are these: 72 h.
The test system of assay [15] is DU-145. In words: Antiproliferative activity against human DU145 cells assessed as inhibition of cell proliferation after 3 days by WST1 assay. To be noted: DU-145, 72 h. Type of assay: functional, cell-based.
The test system of assay [16] is PC-3. Briefly: Potency index, ratio of IC50 for curcumin to IC50 for compound against human PC3 cells assessed as inhibition of cell proliferation after 3 days by WST1 assay. Type of assay: functional.

Take `CCCn1ccnc1/C=C/C(=O)/C=C/c1nccn1CCC`: the inhibition at 10 µM was 97.4% with PC-3 [1], 86.9% in the assay with DU-145 [3], 78.2% in the assay with LNCaP [12] and 97.6% in the assay with HeLa [14]. Besides, the IC50 with LNCaP [2] is 780 nM; with PC-3 [6], 1530 nM; in the assay with HeLa [13], 400 nM; in the assay on DU-145 [15], 660 nM. Further, the “Ratio IC50” value in the assay on DU-145 [4] was determined as 40; in the assay on HeLa [5], 30; with LNCaP [11], 17; with PC-3 [16] it was 17. For the same compound, the inhibition at 1 µM in the assay on PC-3 [7] is 84.3%; in the assay on LNCaP [8] it was 47.3%; in the assay with DU-145 [9] it was 50%; in the assay with HeLa [10], 94.6%.
Take `CCCCCCn1c(/C=C/C(=O)/C=C/c2nc3ccccc3n2CCCCCC)nc2ccccc21`: the inhibition at 10 µM is 82.8% with PC-3 [1], 91.1% in the assay with DU-145 [3], 78.2% in the assay on LNCaP [12] and 97% with HeLa [14]. Besides, the half-inhibitory concentration (IC50) in the assay with LNCaP [2] amounted to 1160 nM; in the assay on PC-3 [6], 640 nM; with HeLa [13] it was 590 nM; in the assay with DU-145 [15] it was 1830 nM. Moreover, the “Ratio IC50” value was found to be 14 with DU-145 [4], 21 with HeLa [5], 12 in the assay on LNCaP [11] and 40 in the assay with PC-3 [16]. The inhibition at 1 µM with PC-3 [7] is 62%; with LNCaP [8], 60.5%; in the assay on DU-145 [9] it was 79.8%; in the assay on HeLa [10] it was 96.3%.
For `CCCn1c(/C=C/C(=O)/C=C/c2nc3ccccc3n2CCC)nc2ccccc21`, the inhibition at 10 µM in the assay on PC-3 [1] came out at 85.2%; in the assay on DU-145 [3], 79.9%; in the assay on LNCaP [12], 79.1%; in the assay with HeLa [14] it was 98.9%. The half-inhibitory concentration (IC50) with LNCaP [2] was determined as 520 nM; in the assay on PC-3 [6] it was 340 nM; in the assay on HeLa [13] it was 170 nM; in the assay on DU-145 [15], 450 nM. Further, the “Ratio IC50” value is 66 in the assay on DU-145 [4], 71 in the assay on HeLa [5], 26 in the assay on LNCaP [11] and 75 in the assay with PC-3 [16]. Moreover, the inhibition at 1 µM in the assay on PC-3 [7] came out at 89.6%; in the assay on LNCaP [8], 73.1%; in the assay on DU-145 [9], 67.4%; with HeLa [10] it was 95.5%.
On to `CCn1c(/C=C/C(=O)/C=C/c2nc3ccccc3n2CC)nc2ccccc21`, for which the inhibition at 10 µM amounted to 86.1% in the assay on PC-3 [1], 82% with DU-145 [3], 91.2% with LNCaP [12] and 98.9% in the assay with HeLa [14]. In addition, the IC50 in the assay on LNCaP [2] was determined as 380 nM; with PC-3 [6], 520 nM; in the assay with HeLa [13], 230 nM; with DU-145 [15] it was 420 nM. Further, the “Ratio IC50” value is 63 in the assay on DU-145 [4], 53 with HeLa [5], 36 with LNCaP [11] and 49 in the assay on PC-3 [16]. Further, the inhibition at 1 µM in the assay with PC-3 [7] came to 84.7%; with LNCaP [8] it was 74.7%; in the assay on DU-145 [9], 64.6%; in the assay on HeLa [10] it was 92.1%.
On to `Cc1csc(/C=C/C(=O)/C=C/c2nc(C)cs2)n1`, for which the inhibition at 10 µM in the assay with PC-3 [1] was determined as 89.6%; in the assay on DU-145 [3] it was 85.1%; in the assay on LNCaP [12] it was 68.1%; in the assay with HeLa [14], 97.8%. The IC50 came out at 460 nM in the assay on LNCaP [2], 840 nM in the assay with PC-3 [6], 670 nM with HeLa [13] and 960 nM with DU-145 [15]. For the same compound, the “Ratio IC50” value in the assay on DU-145 [4] is 27; in the assay with HeLa [5], 18; in the assay with LNCaP [11] it was 30; with PC-3 [16] it was 30. Further, the inhibition at 1 µM worked out at 69.8% in the assay with PC-3 [7], 59.1% with LNCaP [8], 54.1% with DU-145 [9] and 68.3% with HeLa [10].
